Reference: patent US11572590B2, “Methods for evaluating tumor cell spheroids using 3D microfluidic cell culture device” (Dana-Farber Cancer Institute, Inc., priority 2017, dated 2023)
Like-named read-outs stand apart in the source and are kept apart here.

Key:
Assay in all cases: SelectScreen Kinase Profiling, single point inhibition and IC50 for off-target kinases
Assay type in all cases: biochemical
off-target kinases [1] = molecular target: off-target kinases (Homo sapiens, UniProt Q96S53); settings: TESK2, LanthaScreen Binding
Chain of off-target kinases (Homo sapiens, UniProt Q96S53) (Q96S53 whole entry): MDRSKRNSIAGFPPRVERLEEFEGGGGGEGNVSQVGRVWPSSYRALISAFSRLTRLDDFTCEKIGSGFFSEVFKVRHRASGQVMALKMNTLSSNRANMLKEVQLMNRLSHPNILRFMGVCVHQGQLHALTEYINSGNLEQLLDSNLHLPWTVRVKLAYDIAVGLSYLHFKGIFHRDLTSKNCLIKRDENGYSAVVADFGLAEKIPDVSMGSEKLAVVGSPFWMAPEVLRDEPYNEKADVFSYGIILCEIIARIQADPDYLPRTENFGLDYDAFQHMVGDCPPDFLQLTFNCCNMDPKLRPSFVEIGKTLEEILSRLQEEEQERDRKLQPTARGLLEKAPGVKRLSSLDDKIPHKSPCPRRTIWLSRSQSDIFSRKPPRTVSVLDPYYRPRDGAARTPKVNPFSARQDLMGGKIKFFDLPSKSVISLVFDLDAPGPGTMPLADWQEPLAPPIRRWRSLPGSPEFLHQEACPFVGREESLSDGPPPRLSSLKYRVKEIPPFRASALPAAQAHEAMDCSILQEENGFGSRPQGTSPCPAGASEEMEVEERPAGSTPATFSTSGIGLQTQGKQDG

off-target kinases [2] = molecular target: off-target kinases (Homo sapiens, UniProt P49841); settings: GSK3B (GSK3 beta), ZLYTE, ATP Km app
Chain of off-target kinases (Homo sapiens, UniProt P49841) (P49841 whole entry): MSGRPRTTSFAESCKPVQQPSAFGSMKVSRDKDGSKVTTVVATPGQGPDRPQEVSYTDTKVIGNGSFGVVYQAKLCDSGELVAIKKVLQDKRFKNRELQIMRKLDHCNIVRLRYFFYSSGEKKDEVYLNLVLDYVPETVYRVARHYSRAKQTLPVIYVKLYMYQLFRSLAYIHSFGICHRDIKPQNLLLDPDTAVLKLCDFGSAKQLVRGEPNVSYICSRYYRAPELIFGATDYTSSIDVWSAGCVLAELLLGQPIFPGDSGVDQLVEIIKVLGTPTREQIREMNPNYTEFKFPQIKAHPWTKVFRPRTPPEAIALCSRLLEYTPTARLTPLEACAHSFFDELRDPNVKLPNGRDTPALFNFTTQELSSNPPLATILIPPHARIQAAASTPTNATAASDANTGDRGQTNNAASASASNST

off-target kinases [3] = molecular target: off-target kinases (Homo sapiens, UniProt P00519, E255K); settings: ABL1 E255K, ATP Km app, ZLYTE
Chain of off-target kinases (Homo sapiens, UniProt P00519, E255K) (P00519 whole entry E255K): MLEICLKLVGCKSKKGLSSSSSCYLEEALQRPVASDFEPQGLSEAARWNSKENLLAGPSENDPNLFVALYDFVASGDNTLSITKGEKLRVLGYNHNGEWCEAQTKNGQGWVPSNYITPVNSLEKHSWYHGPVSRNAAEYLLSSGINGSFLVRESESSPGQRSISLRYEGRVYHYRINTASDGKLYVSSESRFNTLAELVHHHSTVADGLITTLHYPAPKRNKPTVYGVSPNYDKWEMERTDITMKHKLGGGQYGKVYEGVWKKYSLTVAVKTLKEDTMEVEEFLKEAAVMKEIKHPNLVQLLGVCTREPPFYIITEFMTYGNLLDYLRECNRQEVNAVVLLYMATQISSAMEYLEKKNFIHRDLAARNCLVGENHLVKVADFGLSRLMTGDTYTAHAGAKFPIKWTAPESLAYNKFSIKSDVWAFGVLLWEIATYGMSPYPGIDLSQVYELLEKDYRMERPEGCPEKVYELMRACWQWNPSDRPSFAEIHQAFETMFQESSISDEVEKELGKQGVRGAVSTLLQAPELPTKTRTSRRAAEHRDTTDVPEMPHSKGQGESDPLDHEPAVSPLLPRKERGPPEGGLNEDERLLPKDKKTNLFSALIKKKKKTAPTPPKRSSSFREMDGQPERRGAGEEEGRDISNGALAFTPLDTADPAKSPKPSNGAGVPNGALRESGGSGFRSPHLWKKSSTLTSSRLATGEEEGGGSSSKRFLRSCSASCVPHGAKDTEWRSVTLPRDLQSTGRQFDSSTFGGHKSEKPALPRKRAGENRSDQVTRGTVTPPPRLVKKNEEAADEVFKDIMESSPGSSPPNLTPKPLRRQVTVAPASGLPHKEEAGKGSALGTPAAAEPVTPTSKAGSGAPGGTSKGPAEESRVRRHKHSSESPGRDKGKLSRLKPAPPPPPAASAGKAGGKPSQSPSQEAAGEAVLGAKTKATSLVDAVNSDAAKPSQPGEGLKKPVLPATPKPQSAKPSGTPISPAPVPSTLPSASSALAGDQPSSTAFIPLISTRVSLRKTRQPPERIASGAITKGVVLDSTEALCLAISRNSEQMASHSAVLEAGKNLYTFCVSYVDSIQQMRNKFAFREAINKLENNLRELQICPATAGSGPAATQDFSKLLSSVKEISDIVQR

off-target kinases [4] = molecular target: T1, off-target kinases (Homo sapiens, UniProt P54762); settings: EPHB1, ZLYTE, ATP Km app
T1 sequence (P54762 18-984): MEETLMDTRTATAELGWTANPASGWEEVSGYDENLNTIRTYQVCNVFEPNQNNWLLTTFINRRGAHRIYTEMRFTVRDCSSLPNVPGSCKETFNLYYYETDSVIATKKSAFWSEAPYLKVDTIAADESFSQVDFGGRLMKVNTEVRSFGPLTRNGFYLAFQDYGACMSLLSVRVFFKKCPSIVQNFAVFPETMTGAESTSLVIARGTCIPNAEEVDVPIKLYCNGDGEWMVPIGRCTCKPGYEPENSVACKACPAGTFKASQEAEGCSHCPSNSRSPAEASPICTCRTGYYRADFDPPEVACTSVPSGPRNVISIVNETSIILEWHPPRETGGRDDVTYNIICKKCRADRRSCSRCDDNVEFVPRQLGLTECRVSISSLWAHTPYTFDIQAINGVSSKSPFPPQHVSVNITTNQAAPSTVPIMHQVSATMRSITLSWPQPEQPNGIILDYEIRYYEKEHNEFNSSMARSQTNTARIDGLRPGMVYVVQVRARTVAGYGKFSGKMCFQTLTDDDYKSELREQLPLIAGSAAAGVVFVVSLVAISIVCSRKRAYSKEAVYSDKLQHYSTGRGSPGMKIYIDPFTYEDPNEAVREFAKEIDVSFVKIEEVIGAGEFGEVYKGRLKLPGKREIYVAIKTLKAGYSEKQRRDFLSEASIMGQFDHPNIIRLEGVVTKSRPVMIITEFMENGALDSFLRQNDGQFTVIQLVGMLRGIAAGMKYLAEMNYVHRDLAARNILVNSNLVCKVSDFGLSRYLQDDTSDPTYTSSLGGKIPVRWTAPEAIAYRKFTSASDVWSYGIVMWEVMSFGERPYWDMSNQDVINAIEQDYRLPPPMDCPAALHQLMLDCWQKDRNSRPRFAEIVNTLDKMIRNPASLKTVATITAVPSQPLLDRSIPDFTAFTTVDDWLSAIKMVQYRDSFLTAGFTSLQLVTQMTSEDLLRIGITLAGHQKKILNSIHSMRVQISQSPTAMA

`N#Cc1cc(-c2ncnc(Nc3ccc(N4CCN(C5COC5)CC4)cc3)n2)ccc1OC1CCOCC1` [Compound 1, 5-(4-((4-(4-(oxetan-3-yl)piperazin-1-yl)phenyl)amino)-1,3,5-triazin-2-yl)-2-((tetrahydro-2H-pyran-4-yl)oxy)benzonitrile] was tested. Which inhibition (off-target kinases [1]; read-out: % Inhibition 1) did it give?
The inhibition was 14%.

And the inhibition (off-target kinases [1]; read-out: % Inhibition 2)?
The inhibition was -3%.

And the inhibition (off-target kinases [1]; read-out: % Inhibition Avg)?
Its inhibition is 6%.

And the inhibition (off-target kinases [2]; read-out: % Inhibition 1)?
The inhibition was 21%.

What about the inhibition (off-target kinases [2]; read-out: % Inhibition 2) of the same molecule?
The inhibition was 21%.

What about the inhibition (off-target kinases [2]; read-out: % Inhibition Avg) of the same molecule?
Its inhibition is 21%.

And the inhibition (off-target kinases [3]; read-out: % Inhibition 1)?
The inhibition was 53%.

And the inhibition (off-target kinases [3]; read-out: % Inhibition 2)?
Its inhibition is 50%.

What about the inhibition (off-target kinases [3]; read-out: % Inhibition Avg) of the same molecule?
Its inhibition is 51%.

And the inhibition (off-target kinases [4]; read-out: % Inhibition 1)?
Its inhibition is 34%.

What about the inhibition (off-target kinases [4]; read-out: % Inhibition 2) of the same molecule?
The inhibition was 31%.

What about the inhibition (off-target kinases [4]; read-out: % Inhibition Avg) of the same molecule?
The inhibition was 33%.
